{
  "source": "patent US20220040144A1",
  "about": "“COMPOSITIONS AND METHODS FOR THE TREATMENT OF CUTANEOUS T CELL LYMPHOMA (CTCL)” (The State of Israel, Ministry of Agriculture & Rural …, priority 2018, published 2022)",
  "key": {"HUT78 cells": {"tested_on": "HUT78 cells", "assay": "XTT cell viability assay on HUT78 cells", "type": "cell-based, human", "settings": "CBD only, concentration equal to that in combined S4+S5 (7.3 μg/ml), 48 hours", "experimental": "(§1) XTT Cell Viability Assays—Cells were seeded in 96-wells plates at 10,000 cells per well in triplicates in DMEM or RPMI640 growing media. The following day, cells were treated with the different extracts, separated fractions and combinations thereof or pure compounds; or media or solvent only as control. To evaluate involvement of the CB1 and CB2 receptors, 10 μM of AM251 (a CB1 receptor inverse agonist, TOCRIS, 1117/1) or SR144528 (a CB2 receptor inverse agonist, Abcam) were added to the cells 1 hour prior to treatment. Cells were incubated for 48 hours and following XTT (2,3-bis(2-methoxy-4-nitro-5-sulfophenyl)-5-[(phenylamino)-carbonyl]-2H-tetrazolium inner salt) reduction was used to quantify viability according to manufacturer's instruction (BI, Kibbutz Beit-Haemek, Israel). Briefly, cells were incubated with XTT reagent for 2 hours at 37° C. in a humidified 5% CO2, 95% air atmosphere. Absorbance was recorded by a photometer Synergy H1 hybrid reader (BioTek) at 490 nm with 650 nm of reference wavelength. Cells survival was estimated according to the following equation: % cell survival=100×(At−Ac)(treatment)/(At−Ac)(control), where At and Ac are the absorbencies (490 nm) of the XTT colorimetric reaction in treated and control cultures, respectively, minus non-specific absorption measured at 650 nm. Absorbance of medium alone was also deducted from specific readings. […]"}, "MyLa cells": {"tested_on": "MyLa cells", "assay": "XTT cell viability assay on MyLa cells, with Bliss synergy analysis", "settings": "CBD 7.3 μg/ml, CBG 3.5 μg/ml, THC 0.044 μg/ml, CBC 0.027 μg/ml (as in S4 5 + S5 6 μg/mL), 48 hours", "experimental": "as §1"}},
  "data": [
    {"smiles": "C=C(C)[C@@H]1CCC(C)=C[C@H]1c1c(O)cc(CCCCC)cc1O", "note": "[CBD, cannabidiol]", "values": [
      {"measurement": "cell death of HuT-78 cells", "setting": "HUT78 cells", "value": 50, "unit": "%"},
      {"measurement": "cytotoxicity of pure cannabinoids on My-La cells (in words)", "setting": "MyLa cells", "value": "did not induce cell death"}
    ]}
  ]
}
